Laboratory results reported in US20110152183A1, “DERIVATISED HYBRID PEPTIDES OF AMYLIN AND SALMON CALCITONIN” (Novo Nordisk A/S, priority 2008, published 2011).
Peptide text beside a SMILES is read from it.

Biological target: T1, Amylin 3(a) receptor (human calcitonin receptor (CTa) + RAMP-3) (Homo sapiens, UniProt O60896+P30988)
T1 construct: expressed in transfected cells; host or cells: BHK570 (baby hamster kidney) cells, stably transfected, with a CRE-luciferase reporter
Experiment: Amylin luciferase assay (II), CRE luciferase reporter in BHK cells
Assay type: cell-based
Details: BHK Amylin 3(a)//CRE-luc cells, 4 hours incubation
Source text: It has previously been published (Poyner D R et al 2002, Pharmacological Reviews 54 (2) 233-246) that activation of Amylin receptors (coexpression of Calcitonin receptor and receptor activity modifying peptides RAMPs) by Amylin leads to an increase in the intracellular concentration of cAMP. Consequently, transcription is activated at promotors containing multiple copies of the cAMP response element (CRE). It is thus possible to measure Amylin activity by use of a CRE luciferase reporter gene introduced into BHK cells also expressing an Amylin receptor.
2. Construction of An Amylin 3(a)/CRE-Luc Cell Line
A BHK570 cell line stably transfected with the human calcitonin receptor (CTa) and a CRE-responsive luciferase reportergene. The cell line was further transfected with RAMP-3, using standard methods. This turns the Calcitonin receptor into an Amylin 3(a) receptor. Methotrexate, Neomycin, and Hygromycin are selection markers for luciferase, the Calcitonin receptor, and RAMP-3, respectively.
3. Amylin Luciferase Assay
To perform activity assays, BHK Amylin 3(a)//CRE-luc cells were seeded in white 96 well culture plates at a density of about 20.000 cells/well. […] Finally, luminescence was measured on a TopCounter (Packard) in SPC (single photon counting) mode.

T1 sequence (O60896 24-148): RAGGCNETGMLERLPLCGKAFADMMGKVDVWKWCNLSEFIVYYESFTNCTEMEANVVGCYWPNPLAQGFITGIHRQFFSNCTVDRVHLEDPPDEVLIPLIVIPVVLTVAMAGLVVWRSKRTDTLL
T1 sequence (P30988 25-474): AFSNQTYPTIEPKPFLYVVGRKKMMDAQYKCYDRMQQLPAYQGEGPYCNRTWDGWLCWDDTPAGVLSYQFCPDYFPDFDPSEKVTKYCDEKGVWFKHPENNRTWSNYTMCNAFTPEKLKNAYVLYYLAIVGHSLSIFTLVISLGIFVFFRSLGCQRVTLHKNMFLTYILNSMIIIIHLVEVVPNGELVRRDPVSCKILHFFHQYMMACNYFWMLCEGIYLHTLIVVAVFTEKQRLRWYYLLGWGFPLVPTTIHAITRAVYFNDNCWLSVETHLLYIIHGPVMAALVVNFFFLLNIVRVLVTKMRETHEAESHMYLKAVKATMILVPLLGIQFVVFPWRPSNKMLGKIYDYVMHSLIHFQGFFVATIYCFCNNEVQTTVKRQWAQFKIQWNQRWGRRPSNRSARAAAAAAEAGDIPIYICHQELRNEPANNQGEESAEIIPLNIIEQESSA

With `CC(C)C[C@H](NC(=O)[C@H](C)NC(=O)[C@@H]1CSSC[C@H](NC(=O)[C@@H](N)CCCCN)C(=O)N[C@@H](CC(N)=O)C(=O)N[C@@H]([C@@H](C)O)C(=O)N[C@@H](C)C(=O)N[C@@H]([C@@H](C)O)C(=O)N1)C(=O)NCC(=O)N[C@@H](CCCNC(=N)N)C(=O)N[C@@H](CC(C)C)C(=O)N[C@@H](CO)C(=O)N[C@@H](CCC(N)=O)C(=O)N[C@@H](CCC(=O)O)C(=O)N[C@@H](CC(C)C)C(=O)N[C@@H](Cc1c[nH]cn1)C(=O)N[C@@H](CCCNC(=N)N)C(=O)N[C@@H](CC(C)C)C(=O)N[C@@H](CCC(N)=O)C(=O)N[C@H](C(=O)N[C@@H](Cc1ccc(O)cc1)C(=O)N1CCC[C@H]1C(=O)N[C@@H](CCCNC(=N)N)C(=O)N[C@H](C(=O)N[C@@H](CC(N)=O)C(=O)N[C@H](C(=O)NCC(=O)N[C@@H](CO)C(=O)N[C@@H](CC(N)=O)C(=O)N[C@H](C(=O)N[C@@H](Cc1ccc(O)cc1)C(N)=O)[C@@H](C)O)[C@@H](C)O)[C@@H](C)O)[C@@H](C)O` [Example 4, Amylin (1-8)-[Arg11,Arg18]sCT (9-27)-amylin (33-37)] (HELM PEPTIDE1{K.C.N.T.A.T.C.A.L.G.R.L.S.Q.E.L.H.R.L.Q.T.Y.P.R.T.N.T.G.S.N.T.Y.[am]}$PEPTIDE1,PEPTIDE1,2:R3-7:R3$$$V2.0; N-terminus assumed) as the molecule, how does the EC50 read?
The EC50 was 3 pM.
